Source: patent US20260174788A1 (priority 2023, published 2026)

Tests used:
[1] = Pharmacokinetics of gemcitabine and dFdU in urine and plasma after TAR-200; details: for Mean cumulative excreted amount in urine as percentage of the administered dose: 0-168 hours after TAR-200; for Tmax: human, urine, other: intravesical, 225 mg gemcitabine
[2] = test system: HR NMIBC (CIS with or without papillary disease) unresponsive to prior intravesical BCG therapy; design: species or system human; details: in vivo

Row | SMILES | Mean cumulative excreted amount in urine as percentage of the administered dose [1] | Tmax [1] [h] | 12-month CR rate, all TAR-200 treated patients [2] [%] | Responders who achieved CR at the 12 weeks disease assessment [2] | effectiveness versus existing standard of care [2] | Mean gemcitabine concentration in urine versus tumoricidal concentration ([1]; after TAR-200 (225 mg gemcitabine)) [µg/mL]
1 | O=c1ccn([C@@H]2O[C@H](CO)[C@@H](O)C2(F)F)c(=O)[nH]1 [dFdU, 2′,2′ difluorodeoxyuridine] | 11.1-23.3% | 72 to 144 |  |  |  | 
2 | Nc1ccn([C@@H]2O[C@H](CO)[C@@H](O)C2(F)F)c(=O)n1 [gemcitabine] | 36.2-53.8% | 48 to 96 | 64 | 47 out of 48 | nearly two times as effective | > 3
